Experimental data taken from patent publication US12594266B2, “Triterpenoid antifungals for the treatment or prevention of Pneumocystis spp. pneumonia” (priority 2019, dated 2026).

Legend:
[1] = tested on: P. murina; assay: Mouse model of treatment of PCP, early response (C3H/HeN mice); format: in vivo, Pneumocystis murina
[2] = tested on: P. murina; assay: Mouse model of prophylaxis for PCP (C3H/HeN mice, intranasal P. murina); format: in vivo, Pneumocystis murina; conditions: for Percent Survival at Day 7 / Percent Survival at Day 14 / Percent Survival at Day 21 / Percent Survival at Day 28 / Percent Survival at Day 35 / Percent Survival at Day 42: prophylaxis, mice
Protocol: Compound Preparation: SCY-078 (ibrexafungerp) was prepared in 0.5% methyl cellulose for oral administration. A correction factor of 1.37 for this lot was taken into account for salt and water content. Mice in the high dose group received 0.6 mg of SCY-078 BID, mid dose group received 0.3 mg of SCY-078 BID, and low dose group received 0.15 mg of SCY-078 BID, based on average mouse weights of 20 g.
P. murina prophylaxis study method: C3H/HeN mice (Charles River) were infected by intranasal inoculation of P. murina organisms at 2×10^6/50 μl from a liquid nitrogen repository. Prior to inoculation, the P. murina were pre-incubated overnight in RPMI 1640 medium supplemented with calf serum and antibiotics to eliminate any bacterial contamination. The immune systems of the mice were suppressed by the addition of dexamethasone at 4 mg/liter to acidified drinking water (hydrochloric acid at 1 ml/liter). Acidification is used to prevent secondary microbial infections. The mice were divided into a negative (non-treated) control group (control steroid—C/S), positive control group (trimethoprim/sulfamethoxazole—TMP/SMX) and treatment groups. SCY-078 was administered orally (po) BID at the specified doses. The mice were started on the prophylaxis regimen at the same time they were inoculated. Immune suppression and treatment continued for the entire 6-week study. At the conclusion of that time, the mice were euthanized by CO2 and lungs processed for analysis by homogenization. Slides were made from the lung homogenates at different dilutions and stained with Diff-Quik to quantify total nuclei (trophic forms) and with cresyl echt violet to quantify the asci (cyst forms).
(§1) Calculations: Efficacy was based on the reduction of organism burden between the treatment groups and the negative control group as determined by microscopic evaluation. The nuclei and asci counts for each lung were log transformed and statistical analysis was determined by the analysis of variance (ANOVA); individual groups were compared by the Student-Newman-Keuls t test for multiple comparisons using GraphPad Prism. Statistical significance was accepted at a P value≤0.05.

[3] = human, in vivo
Excerpt: The safety and tolerability of SCY-078 has been evaluated in more than 900 subjects in ˜20 clinical trials, at different doses and treatment durations, including administration for up to 1 year. […] Serious adverse events possibly related to SCY-078 have been very rare and interruption or discontinuation of therapy due to adverse reactions has been uncommon. Additionally, the safety profile of oral SCY-078 has been evaluated in standard long-term non-clinical toxicology studies including administration for 9 months in dogs and 6 months in rats, at doses and exposures higher than those anticipated in humans, in line with ICH guidelines. The results from these non-clinical studies support the long-term administration of oral SCY-078 in humans. SCY-078 is currently under evaluation in ongoing clinical trials for the treatment of fungal infections such as candidiasis and aspergillosis. SCY-078 has not been evaluated in clinical trials for the treatment or prevention of PCP.

[4] = tested on: P. murina; assay: Mouse model of treatment of PCP, 28-42 days (Balb/c mice); format: in vivo, Pneumocystis murina
Protocol: Compound Preparation: SCY-078 (ibrexafungerp) was prepared in 0.5% methyl cellulose for oral administration. A correction factor of 1.37 was taken into account for salt and water content. […]
P. murina treatment study methods: Balb/c mice ordered from Charles River were infected with P. murina pneumonia through exposure to mice with a fulminant P. murina infection (seed mice). These mice were immune suppressed by the addition of dexamethasone at 4 mg/liter to the drinking water. Sulfuric acid at 1 ml/liter was also added to the drinking water for disinfection. The seed mice were rotated within the cages for 2 weeks and then removed. After the mice developed a moderate infection level (approximately 5 weeks), the mice were divided into a negative control group (control steroid), positive control group (TMP/SMX), and treatment groups. Drugs to be tested were administered by oral gavage (PO) on a mg/kg/BID basis for up to 6 weeks. At the end of the treatment, the mice were euthanized by CO2 and lungs were processed for analysis. Slides were made from the lung homogenates at different dilutions and stained with Diff-Quik™ to quantify the nuclei (all life cycle stages) and with cresyl echt violet to quantify the asci.
as §1

[5] = patients with HIV; cited from earlier work
[6] = both dose levels (30 and 15 mg/kg BID po), Day 14 and Day 21
[7] = 30 mg/kg BID po, 6 weeks prophylaxis
[8] = all 3 dose levels (30, 15, 7.5 mg/kg BID po), 6 weeks prophylaxis, lung
[9] = 15 and 10 mg/kg groups, days 28 and 35
[10] = all dose levels (15, 10, 5 mg/kg BID po), days 28, 35 and 42

Molecule: CC(C)[C@@H](C)[C@@]1(C)CC[C@]2(C)[C@H]3CC[C@@H]4[C@@]5(COC[C@@]4(C)[C@@H](OC[C@](C)(N)C(C)(C)C)[C@H](n4ncnc4-c4ccncc4)C5)C3=CC[C@@]2(C)[C@@H]1C(=O)O [SCY-078, (1S,4aR,6aS,7R,8R,10aR,10bR,12aR,14R,15R)-15-[[(2R)-2-amino-2,3,3-trimethylbutyl]oxy]-8-[(1R)-1,2-dimethylpropyl]-14-[5-(4-pyridinyl)-1H-1,2,4-triazol-1-yl]-1,6,6a, 7,8,9,10,10a, 10b, 11,12,12a-dodecahydro-1,6a, 8,10a-tetramethyl-4H-1,4a-propano-2H-phenanthro [1,2-c]pyran-7-carboxylic acid]
- magnitude of the effect against nuclei burden compared with TMP/SMX ([1]; both dose levels): lower than observed with the TMP/SMX control
- asci burdens versus vehicle treated negative control group (C/S) [1, 6]: significantly reduced
- nuclei burdens versus vehicle treated negative control group (C/S) [1, 6]: significantly reduced
- extent of asci burden reduction compared with TMP/SMX ([1]; both dose levels, Day 14 and Day 21): to a similar extent
- reduction of asci burden compared with TMP/SMX ([1]; both dose levels, day 7): statistically significantly better
- Percent Survival at Day 7 ([2]; 7.5 mg/kg BID po): 100%
- Percent Survival at Day 14 ([2]; 7.5 mg/kg BID po): 90%
- Percent Survival at Day 21 ([2]; 7.5 mg/kg BID po): 90%
- Percent Survival at Day 28 ([2]; 7.5 mg/kg BID po): 90%
- Percent Survival at Day 35 ([2]; 7.5 mg/kg BID po): 90%
- Percent Survival at Day 42 ([2]; 7.5 mg/kg BID po): 90%
- Percent Survival at Day 7 ([2]; 15 mg/kg BID po): 100%
- Percent Survival at Day 14 ([2]; 15 mg/kg BID po): 90%
- Percent Survival at Day 21 ([2]; 15 mg/kg BID po): 90%
- Percent Survival at Day 28 ([2]; 15 mg/kg BID po): 80%
- Percent Survival at Day 35 ([2]; 15 mg/kg BID po): 80%
- Percent Survival at Day 42 ([2]; 15 mg/kg BID po): 80%
- reduction of asci burden compared with TMP/SMX [2, 7]: performed equally as well
- survival versus vehicle treated negative control group [2, 7]: significant improvement in survival
- Percent Survival at Day 7 ([2]; 30 mg/kg BID po): 100%
- Percent Survival at Day 14 ([2]; 30 mg/kg BID po): 100%
- Percent Survival at Day 21 ([2]; 30 mg/kg BID po): 100%
- Percent Survival at Day 28 ([2]; 30 mg/kg BID po): 100%
- Percent Survival at Day 35 ([2]; 30 mg/kg BID po): 100%
- Percent Survival at Day 42 ([2]; 30 mg/kg BID po, * statistically significant difference vs C/S group): 100* Percent
- asci burden versus vehicle treated negative control group (C/S) [2, 8]: significantly reduced
- nuclei burden versus vehicle treated negative control group (C/S) [2, 8]: significantly reduced
- interruption or discontinuation of therapy due to adverse reactions [3]: uncommon
- most common adverse events [3]: mild to moderate, transient gastrointestinal disorders
- serious adverse events possibly related to SCY-078 [3]: very rare
- asci observed in lung [4, 9]: No asci were observed
- reduction of asci burden compared with positive control (TMP/SMX) [4, 9]: worked equally as well
- asci observed in lung ([4]; all 3 dose groups, day 42): some asci were observed
- asci burdens versus vehicle treated negative control group (C/S) [4, 10]: significantly reduced
- nuclei burdens versus vehicle treated negative control group (C/S) [4, 10]: significantly reduced
- reduction of asci burden compared with positive control (TMP/SMX) ([4]; all dose levels, day 42): worked equally well

Molecule: Trimethoprim-sulfamethoxazole [TMP/SMX, reference compound]
- Percent Survival at Day 7 ([2]; 50/250 mg/kg 3x/wk): 100%
- Percent Survival at Day 14 ([2]; 50/250 mg/kg 3x/wk): 90%
- Percent Survival at Day 21 ([2]; 50/250 mg/kg 3x/wk): 90%
- Percent Survival at Day 28 ([2]; 50/250 mg/kg 3x/wk): 90%
- Percent Survival at Day 35 ([2]; 50/250 mg/kg 3x/wk): 90%
- Percent Survival at Day 42 ([2]; 50/250 mg/kg 3x/wk): 90%
- hepatitis [5]: 20 % of patients
- thrombocytopenia [5]: 15 % of patients
